PubChem BioAssay AID816 (SRMLSC, 2007)
Active and inactive are the calls of the source. The rule behind the calls is not given here.

Tested on: S. cerevisiae GAL1 promoter reporter activation counterscreen
Assay: yeast Gal1p promoter activation – S. cerevisiae, artefact control for yeast lifespan extension project (AID 816);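 note: yeast growth read after 24 h of incubation with compounds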

Row | Compound | EC50
1 | CC(=O)Nc1nc(C)c(Oc2ccccc2)c(=O)[nH]1 | > 40 µM (inactive)
2 | CCOC(=O)CCS(=O)(=O)c1nc(-c2ccccc2)cc(C(F)(F)F)n1 | > 40 µM (inactive)
3 | C=C(C(=O)c1ccccc1)C(C)C(=C)C(=O)c1ccccc1 | > 40 µM (inactive)
4 | N#Cc1c(-c2ccccc2)c(-c2ccccc2)nn(CC(=O)NNC(=O)Nc2ccccc2)c1=O | > 40 µM (inactive)
5 | COc1ccc(NC(=O)/C(Cl)=C(/Cl)S(=O)Cc2ccc(C)cc2)cn1 (stereo unspecified) | > 40 µM (inactive)
6 | CC(=O)Nc1c(O)nc(SCc2ccccc2C#N)[nH]c1=O | > 40 µM (inactive)
7 | COc1ccc2c(=O)c3c(=O)n(Cc4ccco4)c(-c4ccc(C)cc4)nc3oc2c1 | > 40 µM (inactive)
8 | COC(=O)c1sc(S(=O)(=O)Nc2ccc(Br)cc2)c(C(=O)OC)c1C | > 40 µM (inactive)
9 | O=C(NCCc1ccccn1)C(F)(F)C(F)(F)C(F)(F)C(F)(F)C(F)(F)C(F)(F)C(F)(F)C(F)F | > 40 µM (inactive)
10 | O=C(Nc1nc2ccccc2n1CCN1CCOCC1)c1cn(-c2ccccc2)nc1-c1ccccc1 | > 40 µM (inactive)
11 | CN=C(SCc1cc2c(cc1Cl)OCO2)c1c(O)n(C)c(=O)n(C)c1=O | > 40 µM (inactive)
12 | O=C(c1ccc(F)cc1)C(CN1CCOCC1)c1ccccc1 (stereo unspecified) | > 40 µM (inactive)
13 | CCC1C/C(=C\c2cccnc2)C(=O)/C(=C/c2cccnc2)C1 (stereo unspecified) | > 40 µM (inactive)
14 | C/C(=N\NC(=O)c1ccccc1O)c1c(O)cc(C)oc1=O | > 40 µM (inactive)
15 | Cc1n[nH]c(=O)n1-c1cccc(C(F)(F)F)c1 | > 40 µM (inactive)
16 | CCCCC(CC)Cn1c2nc3ccccc3nc2c2c(=N)oc(C)nc21 (stereo unspecified) | > 40 µM (inactive)
17 | O=S1(=O)C=C(Sc2nnc(-c3ccccc3)o2)c2ccccc21 | > 40 µM (inactive)
18 | COc1ccccc1CNC(=O)C(CCSC)NS(=O)(=O)c1ccc2c(c1)oc(=O)n2C (stereo unspecified) | > 40 µM (inactive)
19 | N=c1c2c(-c3ccccc3)c(-c3ccccc3)n(Cc3ccco3)c2ncn1CCCn1ccnc1 | > 40 µM (inactive)
20 | Cc1ccc(S(=O)(=O)N[C@@H](Cc2ccccc2)C(=O)CCl)cc1 | > 40 µM (inactive)
21 | COc1ccc(-c2cc(N)n(S(=O)(=O)c3c(F)c(F)c(F)c(F)c3F)n2)cc1OC | > 40 µM (inactive)
22 | CCc1ccc2nc(N3C(=O)C(O)=C(C(=O)c4ccco4)C3c3cccs3)sc2c1 (stereo unspecified) | > 40 µM (inactive)
23 | O=Cc1cccn1-c1sc2c(c1C(=O)O)CCCC2 | > 40 µM (inactive)
24 | COc1cc(OC)cc(-c2nc3ccccc3c(=O)n2OC(=O)c2ccccc2C)c1 | > 40 µM (inactive)

Row | Compound | EC50
25 | COc1ccccc1C(=O)Oc1cc(N)n(S(=O)(=O)c2ccc(C)cc2)n1 | > 40 µM (inactive)
26 | CCOc1ccc(C(=O)C(CN2CCOCC2)c2ccccc2)cc1 (stereo unspecified) | > 40 µM (inactive)
27 | O=C(Nc1scc(-c2cccs2)c1C(=O)O)c1cccs1 | > 40 µM (inactive)
28 | COc1cc(OC)cc(-c2nc3ccccc3c(=O)n2OC(=O)c2ccc(C)c(C)c2)c1 | > 40 µM (inactive)
29 | CC(c1ccco1)N(C(=O)c1ccccc1NS(=O)(=O)c1cc([N+](=O)[O-])ccc1Cl)c1ccccn1 (stereo unspecified) | > 40 µM (inactive)
30 | O=C(Oc1ccc([N+](=O)[O-])cc1)c1ccc2ccccc2n1 | > 40 µM (inactive)
31 | CC(=O)Oc1ccccc1N1C(=O)c2ccc(C(=O)O)cc2C1=O | > 40 µM (inactive)
32 | C/C(=N\NC(=O)c1cccc(Cl)c1)C1C(=O)c2ccccc2C1=O | > 40 µM (inactive)
33 | Cc1cc(C)nc(SCc2cc(=O)c(OC(=O)c3ccc(Br)o3)co2)n1 | > 40 µM (inactive)
34 | C=CCn1c(C)cc(C(=O)COc2ncnc3sccc23)c1C | > 40 µM (inactive)
35 | CCCCNC(=O)/C(C#N)=C/c1cccnc1 | > 40 µM (inactive)
36 | CCOC(=O)c1cnc(-c2ccccc2)nc1Oc1ccc(Cl)cc1 | > 40 µM (inactive)
37 | CC1(C)CC2c3cccc(C(=O)O)c3C(=O)N2c2c1ccc1ccccc21 (stereo unspecified) | > 40 µM (inactive)
38 | COc1ccc(CC(=O)Nc2ccc3c(c2)CCC3)cc1S(=O)(=O)N1CCOCC1 | > 40 µM (inactive)
39 | CC1=NN(c2ccc(C(F)(F)F)cn2)C(=O)C1 | > 40 µM (inactive)
40 | CS(=O)(=O)c1nc(-c2cccs2)cc(C(F)(F)F)n1 | > 40 µM (inactive)
41 | O=c1c(Cl)c(NCCCO)cnn1-c1nc2ccccc2[nH]1 | > 40 µM (inactive)
42 | Cc1ccc(/C=C/C(=O)C2C(=O)c3ccccc3C2=O)cc1 | > 40 µM (inactive)
43 | O=C(N/N=C/c1ccccc1)c1c(O)c2ccccc2[nH]c1=O | > 40 µM (inactive)
44 | CCOC(=O)COc1ccccc1/C=C\[N+](=O)[O-] | > 40 µM (inactive)
45 | CC1CCCCN1C(=S)Nc1ccc2nc3n(c(=O)c2c1)CCCCC3 (stereo unspecified) | > 40 µM (inactive)
46 | O=C1C=CC2C(c3ccc4c(c3)OCO4)CC1N2Cc1ccccc1 (stereo unspecified) | > 40 µM (inactive)
47 | COc1ccc(C(=O)On2c(-c3ccc(Br)cc3)nc3ccccc3c2=O)cc1 | > 40 µM (inactive)
48 | CC(c1ccccc1)N1CCn2c(nc3cc(NC(=O)c4cccs4)ccc32)C1 (stereo unspecified) | > 40 µM (inactive)

Row | Compound | EC50
49 | O=C1Nc2ccccc2C12OCC1(CO2)COC2(OC1)C(=O)Nc1ccccc12 (stereo unspecified) | > 40 µM (inactive)
50 | COc1ccc(C2CC23N=C(c2ccccc2)OC3=O)cc1 (stereo unspecified) | > 40 µM (inactive)
51 | CCOC(=O)CCCNC(=O)COc1ccccc1C#N | > 40 µM (inactive)
52 | C=C(C(=O)c1ccccc1)C(C)CC(=O)c1ccccc1 (stereo unspecified) | > 40 µM (inactive)
53 | O=S(=O)(CCSc1ccccn1)c1nc2ccccc2s1 | > 40 µM (inactive)
54 | CC(C)n1c(-c2ccccc2F)n[nH]c1=S | > 40 µM (inactive)
55 | O=C(CSc1nc2ccccc2o1)c1cc2ccccc2oc1=O | > 40 µM (inactive)
56 | COC(=O)c1cc(OC)c(OC)cc1NC(=S)Nc1cccc(C(C)=O)c1 | > 40 µM (inactive)
57 | CCCCCCC1C(C#N)=C(N)OC2=C1C(=O)CC(C)(C)C2 (stereo unspecified) | > 40 µM (inactive)
58 | CC1(C)CC(=O)c2sc(NS(C)(=O)=O)nc2C1 | > 40 µM (inactive)
59 | O=C(N/N=C/c1ccc(F)cc1)c1c(O)c2ccccc2[nH]c1=O | > 40 µM (inactive)
60 | O=C1c2ccccc2C(=O)N1c1ncc(Cc2ccc(Cl)cc2)s1 | > 40 µM (inactive)
61 | Cc1ccc2nc(-c3ccc(NC(=O)CSc4ccccc4)cc3)[nH]c2c1 | > 40 µM (inactive)
62 | O=C1C(=C(O)c2ccccc2)C(=O)c2ccccc21 | > 40 µM (inactive)
63 | O=C(NC(=S)NNC(=O)c1ccc(Cl)cc1Cl)c1cccnc1 | > 40 µM (inactive)
64 | Cc1[nH]n(-c2ccccc2)c(=O)c1N=Nc1nccs1 | > 40 µM (inactive)
65 | CC1=CS(=O)(=O)CC1Sc1nc2ccccc2[nH]1 (stereo unspecified) | > 40 µM (inactive)
66 | CCCCn1c(=O)c2c(O)cc(=O)oc2c2ccccc21 | > 40 µM (inactive)
67 | O=c1cc(-c2c(F)c(F)c(F)c(F)c2F)oc2c(F)c(F)c(F)c(F)c12 | > 40 µM (inactive)
68 | O=C1NC(=O)N(CCC2=CCCCC2)C(=O)/C1=C\c1cccs1 | > 40 µM (inactive)
69 | COC(=O)/C(=C/c1cn(C)c2ccccc12)[N+](=O)[O-] | > 40 µM (inactive)
70 | CCC(=O)Nc1ccccc1Sc1ncnc2scc(-c3ccccc3)c12 | > 40 µM (inactive)
71 | O=C1C(Cl)=C(Nc2ccccc2O)C(=O)N1CCc1ccccc1 | > 40 µM (inactive)
